From patent US20080044436A1, “Method for Screening and Compositions for Treating Cancers” (priority 2004, published 2008)

B1: TReP-132: Transcriptional Regulating Protein of 132 kDa, polypeptide comprising SEQ ID NO: 2; here expressed in cells from vectors (protein)
chain: MGDQQLYKTNHVAHGSENLFYQQPPLGVHSGLNHNYGNAVTGGGMDAPQASPISPHFPQDTRDGLGLPVGSKNLGQMDTSRQGGWGSHAGPGNHVQLRGNLANSNMMWGAPAQAEPTDGYQYTYSQASEIRTQKLTSGVLHKLDSFTQVFANQNLRIQVNNMAQVLHTQSAVMDGAPDSALRQLLSQKPMEPPAPAIPSRYQQVPQQPHPGFTGGLSKPALQVGQHPTQGHLYYDYQQPLAQVPVQGGQPLQAPQMLSQHMQQMQQHQYYPPQQQQQAGQQRISMQEIQTQPQQIRPSQPQPPPQQQQPQQLQLQQRQGSMQIPQYYQPQPMMQHLQEQQQQQMHLQPPSYHRDPHQYTPEQAHTVQLIPLGSMSQYYYQEPQQPYSHPLYQQSHLSQHQQREDSQLKTYSSDRQAQAMLSSHGDLGPPDTGMGDPASSDLTRVSSTLPHRPLLSPSGIHLNNMGPQHQQLSPSAMWPQMHLPDGRAQPGSPESSGQPKGAFGEQFDAKNKLTCSICLKEFKNLPALNGHMRSHGGMRASPNLKQEEGEKVLPPQPQPPLPPPPPPPPPPQLPPEAESLTPMVMPVSVPVKLLPPKPSSQGFTNSTVAAPSARDKPASSMSDDEMPVLEIPRKHQPSVPKAEEPLKTVQEKKKFRHRPEPLFIPPPPSYNPNPAASYSGATLYQSQLRSPRVLGDHLLLDPTHELPPYTPPPMLSPVRQGSGLFSNVLISGHGPGAHPQLPLTPLTPTPRVLLCRSNSIDGSNVTVTPGPGEQTVDVEPRINIGLRFQAEIPELQDISALAQDTHKATLVWKPWPELENHDLQQRVENLLNLCCSSALPGGGTNSEFALHSLFEAKGDVMVALEMLLLRKPVRLKCHPLANYHYAGSDKWTSLERKLFNKALATYSKDFIFVQKMVKSKTVAQCVEYYYTWKKIMRLGRKHRTRLAEIIDDCVTSEEEEELEEEEEEDPEEDRKSTKEEESEVPKSPEPPPVPVLAPTEGPPLQALGQPSGSFICEMPNCGAVFSSRQALNGHARIHGGTNQVTKARGAIPSGKQKPGGTQSGYCSVKSSPSHSTTSGETDPTTIFPCKECGKVFFKIKSRNAHMKTHRQQEEQQRQKAQKAAFAAEMAATIERTTGPVGAPGLLPLDQLSLIKPIKDVDILDDDVVQQLGGVMEEAEVVDTDLLLDDQDSVLLQGDAEL

Assays:
p27 promoter = test: Luciferase reporter assay in T47-D cells, p27 promoter; assay type: cell-based, human; conditions: 30 nM progesterone for 34 hours or TReP-132 expression vector
Description: (§1) FIGS. 14A and 14B: T47-D cells were cotransfected with reporter constructs containing the p21 (FIG. 14A) or p27 (FIG. 14B) promoter. Twelve hours post-transfection, the cells were incubated with 30 nM progesterone or ethanol for 34 hours. The cell lysates were then assayed for luciferase activity. Luciferase activity of the −93p21 Luc and −549p27 Luc constructs represent level 1. Arrows indicate transcription initiation sites.
(§2) The pGL2 and pGL3 reporter constructs (100 ng) were cotransfected with the indicated amounts of expression vectors and 10 ng of the control plasmid pRL.Null. The amount of plasmid was then normalized with the empty vector pcDNA3. After 12 hours of transfection, the medium was changed and cells were incubated for an additional 10 and 34 hours, respectively. During this period, T47-D cells were cultured in the presence and absence of progesterone (30 nM). The cells were then harvested and cell lysates (20 μl) were assayed for luciferase activity (Dual Luciférase™ Reporter Assay System, Promega, Madison, Wis., USA) in a Berthold LUMAT LB9501 luminometer. The transfections were performed in triplicate and each experiment was repeated at least three times.

p21 promoter = test: Luciferase reporter assay in T47-D cells, p21 promoter; assay type: cell-based, human; conditions: 30 nM progesterone for 34 hours or TReP-132 expression vector
Description: as §1, §2

| Molecule | p27 promoter activation (p27 promoter) | p21 promoter activation (p21 promoter) |
| --- | --- | --- |
| CC(=O)[C@H]1CC[C@H]2[C@@H]3CCC4=CC(=O)CC[C@]4(C)[C@H]3CC[C@]12C [progesterone, reference compound] | activated the two promoters | activated the two promoters |
| B1 | activated the two promoters | activated the two promoters |
